The source made the active and inactive calls.
Columns and labels:
[1] = HEK-293T viability loss after treatment – luminescence, T-cell screen hits, cytotoxicity control for TCR NF-kB inhibitor project, dose response (AID 489026); format: functional, cell-based;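 further: cells exposed to compound about 14 hours before the viability readout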
[2] = PAX5 cellular inhibition readout – cell-based, plate reader, dry powder samples, selectivity assay for PAX8 inhibitor project, dose response (AID 743047); format: functional;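 further: HEK293 cells carrying a Pax5 driven CD19 promoter luciferase reporter; potency of inhibitors that lower reporter luminescence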
[3] = COV362 cell viability loss – plate reader, dry powder, SA12, cytotoxicity control for PAX8 inhibitor project, dose response (AID 743144); format: functional, cell-based
[4] = OVCAR-3 cell viability loss – plate reader, dry powder samples, PAX8 inhibitor project, dose response (AID 743044); format: functional, cell-based
[5] = A2780 cell killing – plate reader, dry powder samples, cytotoxicity control, dose response (AID 743046); format: functional, cell-based
[6] = OVCAR4 cell viability loss – plate reader, dry powder, SA11, cytotoxicity control for PAX8 inhibitor project, dose response (AID 743150); format: functional, cell-based; conditions: OVCAR-4
[7] = OV-90 cell viability loss – plate reader, dry powder, SA8, PAX8 inhibitor project, dose response (AID 743149); format: functional, cell-based
[8] = toxicity toward immortalized ovarian surface epithelium – cell-based, plate reader, dry powder samples, cytotoxicity control for PAX8 inhibitor project, dose response (AID 743045); format: functional
cells [9] = format: functional, cell-based
[10] = luciferase reporter signal suppression in cells – H4 neuroglioma cells, luminescence, dose response (AID 1990); format: functional, cell-based
[11] = PAX8-dependent cell viability loss – plate reader, dry powder, dose response (AID 743049); format: functional, cell-based
[12] = target: T1, Nuclear receptor subfamily 0 group B member 1 (Homo sapiens, UniProt P51843); format: functional, cell-based;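 further: HEK293T cells transfected with SF-1 and DAX-1 plus StAR promoter luciferase reporter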
T1 sequence (P51843 whole entry): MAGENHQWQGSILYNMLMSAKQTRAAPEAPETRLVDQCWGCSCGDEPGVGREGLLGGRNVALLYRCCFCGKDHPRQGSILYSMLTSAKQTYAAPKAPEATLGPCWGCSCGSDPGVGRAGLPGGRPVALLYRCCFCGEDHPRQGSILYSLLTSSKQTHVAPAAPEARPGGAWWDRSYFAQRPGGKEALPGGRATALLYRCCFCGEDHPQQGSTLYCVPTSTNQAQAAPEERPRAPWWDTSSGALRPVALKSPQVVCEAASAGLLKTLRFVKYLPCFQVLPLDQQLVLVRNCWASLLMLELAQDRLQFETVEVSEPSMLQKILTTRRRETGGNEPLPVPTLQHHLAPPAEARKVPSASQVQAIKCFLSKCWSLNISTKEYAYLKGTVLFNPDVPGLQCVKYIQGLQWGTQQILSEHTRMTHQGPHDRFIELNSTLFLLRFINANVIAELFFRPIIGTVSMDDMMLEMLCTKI

[13] = alpha-synuclein stem-loop luciferase translation blockers – H4 neuroglioma cells, luminescence, confirmation (AID 1988); format: functional, cell-based
Paired box protein Pax-8 = Paired box protein Pax-8 (Homo sapiens, UniProt Q06710); assay: PAX8 transcriptional activity inhibition in RMG-I – RMG-I cells, luciferase, cherry-pick, dose response (AID 687027); format: functional, cell-based;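 further: luciferase reporter driven by Pax8 target thyroperoxidase promoter measured by SteadyGlo luminescence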
Sequence of Paired box protein Pax-8 (Q06710 whole entry): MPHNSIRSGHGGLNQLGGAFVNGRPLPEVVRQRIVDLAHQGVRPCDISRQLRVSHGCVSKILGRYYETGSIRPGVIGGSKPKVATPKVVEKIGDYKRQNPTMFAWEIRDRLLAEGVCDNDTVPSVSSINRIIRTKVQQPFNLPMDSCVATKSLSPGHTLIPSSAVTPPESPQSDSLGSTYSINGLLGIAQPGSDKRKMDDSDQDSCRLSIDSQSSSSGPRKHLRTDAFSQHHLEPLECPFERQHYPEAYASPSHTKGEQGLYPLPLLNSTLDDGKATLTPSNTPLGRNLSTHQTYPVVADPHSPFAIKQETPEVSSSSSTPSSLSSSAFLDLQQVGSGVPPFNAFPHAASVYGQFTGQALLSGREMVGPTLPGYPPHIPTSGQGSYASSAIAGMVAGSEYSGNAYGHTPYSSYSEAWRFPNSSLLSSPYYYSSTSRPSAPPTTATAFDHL

[14] = inhibitors acting on PAX2 in cells – cell-based, plate reader, dry powder samples, selectivity assay for PAX8 inhibitor project, dose response (AID 743048); format: functional;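 further: HEK293 cells carrying a WT1 promoter luciferase reporter driven by expressed Pax2; potency is for inhibition of Pax2 driven reporter signal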
[15] = COV434 cell viability loss – plate reader, dry powder, SA7, cytotoxicity control for PAX8 inhibitor project, dose response (AID 743145); format: functional, cell-based
[16] = luciferase reporter signal reduction – luminescence, H4-C neuroglioblastoma cells, dose response (AID 2458); format: functional, cell-based;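 further: H4 neuroglioblastoma cells stably carrying a luciferase reporter gene fusion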
[17] = alpha-synuclein stem-loop translation blockers – luminescence, H4 neuroglioblastoma cells, dose confirmation, confirmation (AID 2454); format: functional, cell-based;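 further: H4 neuroglioblastoma cells carrying an alpha-synuclein 5'UTR luciferase reporter; potency for inhibition of the luciferase signal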
cells [18] = format: functional, cell-based; remark: listed apart in the source
[19] = IGROV1 cell killing – plate reader, dry powder samples, PAX8 inhibitor project, dose response (AID 743043); format: functional, cell-based; conditions: IGROV-1
[20] = MITF Measured in Cell-Based System Using Plate Reader - 2084-01_Inhibitor_Dose_DryPowder_Activity_Set6.; format: functional
[21] = growth inhibition of SK-MEL-5 melanoma cells – cell-based, CellTiter-Glo luminescence, dry powder, set 8, orthogonal assay for MITF inhibitor project, dose response (AID 651586); format: functional
[22] = MITF Orthogonal Assay: MALME3 CTG Assay Measured in Cell-Based System Using Plate Reader - 2084-04_Inhibitor_Dose_DryPowder_Activity_Set6.; format: functional; conditions: MALME-3
[23] = viability loss in MITF-independent A375 cells – cell-based, CellTiter-Glo luminescence, dry powder, set 7, counter-screen for MITF inhibitor project, dose response (AID 624490); format: functional; conditions: A-375
[24] = inhibitors of TRPM1-promoter reporter in SK-MEL-5 – cell-based, luciferase, dry powder, set 9, MITF inhibitor project, dose response (AID 651588); format: functional
[25] = MITF Measured in Cell-Based System Using Plate Reader - 2084-01_Inhibitor_Dose_DryPowder_Activity_Set7.; format: functional
[26] = cytotoxicity in MITF-independent A375 cells – cell-based, CellTiter-Glo luminescence, dry powder, set 4, counter-screen for MITF inhibitor project, dose response (AID 624364); format: functional; conditions: A-375;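 further: A375 melanoma cells are MITF independent so this is a counter screen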
[27] = melanocyte viability loss, MITF-dependent cells, cell-based, plate reader, dry powder, cytotoxicity control, dose response (AID 651920); format: functional
[28] = cytotoxicity in melanoma parental cells – cell-based, CellTiter-Glo, dry powder, set 6, MITF inhibitor project, dose response (AID 624429); format: functional; conditions: SK-MEL-5
[29] = MITF Orthogonal Assay: SK-MEL-5 CTG Assay Measured in Cell-Based System Using Plate Reader - 2084-02_Inhibitor_Dose_DryPowder_Activity_Set5.; format: functional
[30] = growth inhibition of MALME3 cells – cell-based, CellTiter-Glo luminescence, dry powder, set 5, orthogonal assay for MITF inhibitor project, dose response (AID 651584); format: functional; conditions: MALME-3
Transthyretin = Transthyretin (Homo sapiens, UniProt P02766); assay: Luminescence-based cell-based high throughput dose response assay to identify activators of Transthyretin (TTR) transcription.; format: functional

For `CN[C@H]1CCc2cc(OC)c(OC)c(OC)c2-c2ccc(OC)c(=O)cc21` [DEMECOLCINE], the IC50 [1] was > 80 µM (inactive), the AC50 [2] was > 100 µM (inactive) and the AC50 [3] was 0.0966 µM (active). The AC50 [4] was 0.318 µM (active), the AC50 [5] was 0.234 µM (active) and the AC50 [6] was 0.113 µM (active). For the same compound, the AC50 [7] was 0.0488 µM (active), the AC50 [8] was 0.113 µM (active) and the EC50 (cells [9]) was 0.08 µM (active). The EC50 [10] was < 0.1 µM (active), the AC50 [11] was 0.0967 µM (active) and the IC50 [12] was > 0.834 µM (active). The EC50 [13] was < 0.1 µM (active), the AC50 (Paired box protein Pax-8) was < 0.26 µM (active) and the AC50 [14] was 0.217 µM (active). The AC50 [15] was 0.0615 µM (active), the EC50 [16] was 0.078 µM (active) and the EC50 [17] was 0.085 µM (active). The IC50 (cells [18]) was > 67.6 µM (inactive) and the AC50 [19] was 6.35 µM (active).
For `O=C1C=C(NS(=O)(=O)c2cccs2)C(=O)c2ccccc21`, the AC50 [20] was 6.01 µM (active), the AC50 [21] was 32.8 µM (active) and the AC50 [22] was 57.6 µM (active). For the same compound, the AC50 [23] was > 70 µM (inactive), the AC50 [24] was 16.9 µM (active) and the AC50 [25] was 5.89 µM (active). For the same compound, the AC50 [26] was > 70 µM (inactive), the AC50 [27] was 17.6 µM (active) and the AC50 [28] was 13.3 µM (active). For the same compound, the AC50 [29] was 15.8 µM (active) and the AC50 [30] was 57.6 µM (active).
In the case of `C=CCn1c(=O)c2c(nc3n2CC(C)CN3Cc2ccccc2)n(C)c1=O` (configuration not stated), the EC50 (Transthyretin) is reported as > 167 µM (inactive).

— ChEMBL document CHEMBL1201862, “PubChem BioAssay data set” (2004)
